The values that follow come from article PMC6953423 (Journal of medicinal chemistry, 2019).

For one data set, the system named is rats. The note with it: cited from earlier work; for seeking drugs of abuse (cocaine or methamphetamine) after a period of extinction: rats pretreated.
The test system of a further data set is male Sprague-Dawley rats. The data set can be described thus: Drug-induced reinstatement of extinguished cocaine-seeking behavior. In kind it is in vivo, rat. The note with it: 10 mg/kg i.p. pretreatment, cocaine prime 10 mg/kg i.p., p > 0.05.
The target in data set [1] is T1, CB1 (Homo sapiens, UniProt P21554). Conditions: absence of CP55,940; up to 10 μM.
T1 sequence (P21554 whole entry): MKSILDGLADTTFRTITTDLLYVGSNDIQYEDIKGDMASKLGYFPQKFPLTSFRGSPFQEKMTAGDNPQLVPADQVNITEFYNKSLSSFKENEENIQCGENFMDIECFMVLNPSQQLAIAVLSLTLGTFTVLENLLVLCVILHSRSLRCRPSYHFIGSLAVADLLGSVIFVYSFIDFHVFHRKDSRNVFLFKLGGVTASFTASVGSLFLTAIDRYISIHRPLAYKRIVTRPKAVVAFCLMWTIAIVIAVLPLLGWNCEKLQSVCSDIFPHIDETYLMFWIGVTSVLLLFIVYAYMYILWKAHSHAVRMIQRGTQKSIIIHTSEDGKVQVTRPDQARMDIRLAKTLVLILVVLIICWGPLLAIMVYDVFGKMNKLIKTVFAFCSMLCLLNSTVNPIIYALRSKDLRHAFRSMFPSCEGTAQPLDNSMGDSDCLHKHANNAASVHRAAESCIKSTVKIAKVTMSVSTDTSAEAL
A further data set has as its system P-gp (MDR1). The experiment in a line: in vitro. Conditions: dog, MDCK-MDR1, pH 7.4.
A short description of a further data set: Kinetic solubility. In kind it is physicochemical. The note with it: phosphate buffer, mean ± SD.
In data set [2] the target is T1, CB1. The experiment in a line: CB1 calcium mobilization assay. In kind it is cell-based. Conditions: IC50 relative to 2. (In general: A change in cytosolic calcium serves as a functional read-out for many receptors and channels.)
The conditions of data set [3]: cited from earlier work.

Structures are written as SMILES.

For the molecule `CCc1c(C(=O)NCCc2ccc(N3CCCCC3)cc2)[nH]c2ccc(Cl)cc12` [Compound 1], the “seeking drugs of abuse (cocaine or methamphetamine) after a period of extinction” value (“seeking drugs of abuse” below) with rats is given as “less likely to seek drugs of abuse”.
As to `O=C(Nc1ccc(Cl)cc1)Nc1ccc(-c2ccccc2)s1` [Compound 11, 1‐(4‐Chlorophenyl)‐3‐(5‐phenylthiophen‐2‐yl)urea], the “effect on drug-induced cocaine-seeking behavior” value in the data set with male Sprague-Dawley rats is “failed to significantly reduce”. Also, the “inverse agonism (in words)” value at CB1 [1] was “very little inverse agonism”. The efflux ratio (usually a quotient of directional permeabilities that is used to spot active efflux) at 10 μM in the data set on P-gp (MDR1) was less than 2.5.
For the molecule `O=C(Nc1ccc(Cl)cc1)Nc1cccc(-c2cccc(N3CCCC3)n2)c1` [Compound 2, 1-(4-chlorophenyl)-3-{3-[6-(pyrrolidin-1-yl)pyridin-2-yl]phenyl}urea], in the data set “Kinetic solubility”, the solubility (in general, how much of the substance goes into solution per volume) at 2 h is less than 1 µM. Besides, the “seeking drugs of abuse” value in the data set on rats is given as “less likely to seek drugs of abuse”.
As for `O=C(Nc1ccc(Cl)cc1)Nc1cc(-c2ccccc2)ccn1` [Compound 7, 1‐(4‐Chlorophenyl)‐3‐(4‐phenylpyridin‐2‐yl)urea], the “fold less potent than 2 in calcium assay” value on CB1 [2] is 4.7 fold.
`N#Cc1ccc(NC(=O)Nc2cccc(-c3cccc(N4CCCC4)n3)c2)cc1` [Compound 3]: the “effect on THC in drug discrimination” value in data set [3] is given as “reduced THC’s potency”.
Turning to `O=C(Nc1ccc(Cl)cc1)Nc1cccc(-c2ccc(F)cc2)c1` [Compound 4], in the data set with rats, the “prime-induced reinstatement of cocaine seeking” value is reported as “attenuated prime-induced restatement of cocaine seeking” and the “seeking drugs of abuse” value was “less likely to seek drugs of abuse”.
As to `O=C(Nc1ccc(Cl)cc1)Nc1ccnc(-c2ccccc2)c1` [Compound 10, 1‐(4‐Chlorophenyl)‐3‐(2‐phenylpyridin‐4‐yl)urea], the “fold less potent than 2 in calcium assay” value on CB1 [2] is 7.1 fold.
Turning to `O=C(Nc1ccc(Cl)cc1)Nc1cncc(-c2ccccc2)c1` [Compound 9, 1‐(4‐Chlorophenyl)‐3‐(5‐phenylpyridin‐3‐yl)urea], the “fold less potent than 2 in calcium assay” value at CB1 [2] is on record as 8.8 fold.
